In PMC3391261, “Characteristic Features of Kynurenine Aminotransferase Allosterically Regulated by (Alpha)-Ketoglutarate in Cooperation with Kynurenine” (PLoS ONE, 2012):
Like-named read-outs stand apart in the source and are kept apart here. Blank lines part the entries; values can stand above or below the molecule they belong to.

How the values were obtained:
PhKAT [1] = target: T1, PhKAT (Pyrococcus horikoshii, UniProt O57946); assay: Isothermal titration calorimetry for cofactor and substrate binding; parameters: species or system Pyrococcus horikoshii OT3; settings: PLP binding to PhKAT; judged from shape of binding curve
Text: To avoid air bubbles, we degassed solutions under vacuum before use. […] Power peaks were integrated, and the resultant reaction […] were plotted against the molar cofactor and/or substrate/protein ratios and fitted using the “sequential binding sites” model according to the manufacturer's instructions with origin version 5.0 (MicroCal Software), thus yielding the dissociation constant K d.

PhKAT [2] = target: T1, PhKAT; assay: Spectrophotometric titration of PhKAT with PLP (absorbance change at 360 nm, 2-site binding model with hill slopes); parameters: species or system Pyrococcus horikoshii OT3; settings: 25°C
Procedure: PhKAT was added to a 20 µM (final concentration) PLP solution in a final volume of 500 µL of 50 mM HEPES–NaOH buffer (pH 7.5) containing 100 mM NaCl. Titration of PhKAT with PLP was monitored by absorption spectroscopy. Aliquots of PLP (1, 2, 4, 8, 16, 32, and 64 µM) were added to the cuvette containing PhKAT at 25°C. Spectra were recorded after the addition of PLP, and the PLP-binding constant (K d) was calculated from the difference in absorbance at 360 nm, and the PLP-binding curve for PhKAT was obtained by the 2-site binding model with variable slopes using prism5.

PhKAT [3] = target: T1, PhKAT; assay: KAT transaminase kinetics, KYNA production from KYN monitored at 332 nm; settings: 100 µM KYN; keto acid as amino acceptor
Procedure: KYNA production was monitored spectrophotometrically using a U-2810 UV–Vis spectrophotometer (Hitachi).
The transaminase abilities of KAT were assayed by measuring the rate of the KYNA production. […] KYNA production was monitored by the increase in A332 at 25°C. The quantities of KYNA were determined spectroscopically with an extinction coefficient of 9.8 mM^−1⋅cm^−1 at 332 nm.

[4] = substrate: CSCCC(=O)C(=O)O; assay: purified protein, by the assay type; settings: other: 100 µM KYN; keto acid as amino acceptor; pH 7.5; 25.0 °C
Procedure: (§1) PLP-dependent KAT activity was assayed in 500 µL of 50 mM HEPES–NaOH buffer (pH 7.5) containing 100 mM NaCl, 10 µM PhKAT, 15 µM PLP, 20 µM KYN, and 64 µM 2OG. Assays were performed at room temperature (25°C), and the reaction was initiated by the addition of 2OG. KYNA production was monitored spectrophotometrically using a U-2810 UV–Vis spectrophotometer (Hitachi).
(§2) The transaminase abilities of KAT were assayed by measuring the rate of the KYNA production. In a total volume of 500 µL, the reaction mixture contained 10 µM PhKAT (dimer: 5 µM); 12 µM PLP; 0.08, 0.1, 0.4, 0.8, 1, 1.2, 2, 4, 6, 8, 12, 16, 20 and 24 µM 2OG; 0.02, 0.08, 0.1, 0.4, 0.8, 1, 1.2, 2, 4, 6, 8, 12, 16, 20 and 24 µM OXA; 50, or 100 µM KYN; 50 mM HEPES–NaOH buffer (pH 7.5); 100 mM NaCl; 0.4, 0.8, 1, 4, 8, 12 and 16 µM α-KMB, and/or 0.4, 0.8, 1, 4, 8, 12, 16 and 20 µM α-KBA. KYNA production was monitored by the increase in A332 at 25°C. The quantities of KYNA were determined spectroscopically with an extinction coefficient of 9.8 mM^−1⋅cm^−1 at 332 nm.

[5] = substrate: CCC(=O)C(=O)O; assay: purified protein, by the assay type; settings: other: 100 µM KYN; keto acid as amino acceptor; pH 7.5; 25.0 °C
Procedure: as §1, §2

[6] = target: the molecule itself; assay: crystal structure; co-crystals of PhKAT with PLP (1:1), PLP and 2OG (1:1:1 or 1:1:2), sitting-drop vapor diffusion at 4°C; space group C2, two chains in the asymmetric unit

dissociation constant (apparent) of second binding site in PhKAT (PhKAT [1]): approximately femtomole order | Kd (PhKAT [2]; 10 µM PhKAT, pH 7.5, read-out: Kd1 (dissociation constant for PLP, first binding site)): 25.5 µM | Kd (PhKAT [2]; 10 µM PhKAT, pH 7.5, read-out: Kd2 (dissociation constant for PLP, second binding site)): 1.77 µM | Kd (PhKAT [2]; 20 µM PhKAT, pH 7.5, read-out: Kd1 (dissociation constant for PLP, first binding site)): 9.65 µM | Kd (PhKAT [2]; 20 µM PhKAT, pH 7.5, read-out: Kd2 (dissociation constant for PLP, second binding site)): 1.92 µM
Molecule: Cc1ncc(COP(=O)(O)O)c(C=O)c1O [PLP, Pyridoxal phosphate]

H-value (allosteric sigmoidal model) (PhKAT [3]): 1.79
Molecule: CCC(=O)C(=O)O [α-KBA, 2-ketobutyric acid]

H-value (allosteric sigmoidal model) (PhKAT [3]): 3.57
Molecule: CSCCC(=O)C(=O)O [α-KMB, α-keto-γ-(methylthio) butyric acid]

B1: PhKAT (Pyrococcus horikoshii OT3) (protein)
chain: MHEDVQLNIYVHSQEGIGMEENIKSMLGDVERFFSKKALEMRASEVRELLKLVETSDIISLAGGLPNPKTFPKEIIRDILVEIMEKYADKALQYGTTKGFTPLRETLMKWLGKRYGISQDNDIMITSGSQQALDLIGRVFLNPGDIVVVEAPTYLAALQAFNFYEPQYIQIPLDDEGMKVEILEEKLKELKSQGKKVKVVYTVPTFQNPAGVTMNEDRRKYLLELASEYDFIVVEDDPYGELRYSGNPEKKIKALDNEGRVIYLGTFSKILAPGFRIGWMVGDPGIIRKMEIAKQSTDLCTNVFGQVVAWRYVDGGYLEKHIPEIRKFYKPRRDAMLEALEEFMPEGVKWTKPEGGMFIWVTLPDGIDSKKMLERAIKKGVAYVPGEAFYAHRDVKNTMRLNFTYVDEDKIMEGIKRLAETIKEELKA
Km [4]: 2.41 µM | Km [5]: 1.73 µM

B2: Kynurenine aminotransferase from Pyrococcus horikoshii OT3 (enzyme, UniProt O57946 1-428, looked up)
chain: MHEDVQLNIYVHSQEGIGMEENIKSMLGDVERFFSKKALEMRASEVRELLKLVETSDIISLAGGLPNPKTFPKEIIRDILVEIMEKYADKALQYGTTKGFTPLRETLMKWLGKRYGISQDNDIMITSGSQQALDLIGRVFLNPGDIVVVEAPTYLAALQAFNFYEPQYIQIPLDDEGMKVEILEEKLKELKSQGKKVKVVYTVPTFQNPAGVTMNEDRRKYLLELASEYDFIVVEDDPYGELRYSGNPEKKIKALDNEGRVIYLGTFSKILAPGFRIGWMVGDPGIIRKMEIAKQSTDLCTNVFGQVVAWRYVDGGYLEKHIPEIRKFYKPRRDAMLEALEEFMPEGVKWTKPEGGMFIWVTLPDGIDSKKMLERAIKKGVAYVPGEAFYAHRDVKNTMRLNFTYVDEDKIMEGIKRLAETIKEELKA
modifications: PLP in a Schiff-base link with Lys269
notes: Kynurenine aminotransferase (PhKAT) of Pyrococcus horikoshii OT3, 428 residues; residues 25-428 seen in the crystal structures, residues 1-24 and the N-terminal His-tag disordered; also called PhKAT; KAT; source: E. coli BL21-CodonPlus (DE3), pET28a-PhKAT, purified (His TALON cartridge); not shown: His6, N-terminal, kept
stoichiometry N [6]: 2
